Laboratory results as given in ChEMBL document CHEMBL2390902, “Discovery of 1-(1,3,5-triazin-2-yl)piperidine-4-carboxamides as inhibitors of soluble epoxide hydrolase” (Bioorg Med Chem Lett, 2013).

Experiments:
[1] = Cmax in rat at 2 mg/kg, po; type: ADME, organism-based; parameters: dose 2 mg/kg, route oral; conditions: in vivo
[2] = molecular target: 5-hydroxytryptamine receptor 7 (Homo sapiens) (UniProt P34969); experiment: Inhibition of human 5-HT7 receptor at 1 uM relative to control
[3] = molecular target: Bifunctional epoxide hydrolase 2 (Rattus norvegicus, UniProt P80299)
[4] = molecular target: Type-1 angiotensin II receptor (Homo sapiens) (UniProt P30556); experiment: Inhibition of human AT1 receptor at 1 uM relative to control
Homo sapiens [5] = species on record: Homo sapiens; experiment: Inhibition of human delta2 opioid receptor at 1 uM relative to control
[6] = molecular target: Adenosine receptor A2a (Homo sapiens) (UniProt P29274); experiment: Inhibition of human adenosine A2A receptor at 1 uM relative to control
Chain of Adenosine receptor A2a (Homo sapiens) (P29274 whole entry): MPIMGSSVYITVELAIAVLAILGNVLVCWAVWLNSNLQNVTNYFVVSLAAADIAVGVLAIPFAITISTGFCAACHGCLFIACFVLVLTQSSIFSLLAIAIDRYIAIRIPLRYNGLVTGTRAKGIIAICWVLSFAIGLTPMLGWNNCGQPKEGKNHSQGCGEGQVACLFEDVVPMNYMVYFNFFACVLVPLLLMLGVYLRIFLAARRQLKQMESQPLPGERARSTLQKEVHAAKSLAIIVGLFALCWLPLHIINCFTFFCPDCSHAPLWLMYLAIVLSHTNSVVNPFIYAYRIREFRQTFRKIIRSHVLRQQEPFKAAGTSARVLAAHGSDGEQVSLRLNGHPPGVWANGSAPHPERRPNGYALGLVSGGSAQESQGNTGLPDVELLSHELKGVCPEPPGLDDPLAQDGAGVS

[7] = Oral bioavailability in rat; type: ADME, organism-based; conditions: in vivo
[8] = molecular target: 5-hydroxytryptamine receptor 6 (Homo sapiens) (UniProt P50406); experiment: Inhibition of human 5-HT6 receptor at 1 uM relative to control
[9] = molecular target: Vasopressin V1a receptor (Homo sapiens) (UniProt P37288); experiment: Inhibition of human vasopressin V1a receptor at 1 uM relative to control
[10] = Fraction unbound in rat plasma; type: ADME, cell-free
[11] = molecular target: 5-hydroxytryptamine receptor 2A (Homo sapiens) (UniProt P28223); experiment: Inhibition of human 5-HT2A receptor at 1 uM relative to control
Chain of 5-hydroxytryptamine receptor 2A (Homo sapiens) (P28223 whole entry): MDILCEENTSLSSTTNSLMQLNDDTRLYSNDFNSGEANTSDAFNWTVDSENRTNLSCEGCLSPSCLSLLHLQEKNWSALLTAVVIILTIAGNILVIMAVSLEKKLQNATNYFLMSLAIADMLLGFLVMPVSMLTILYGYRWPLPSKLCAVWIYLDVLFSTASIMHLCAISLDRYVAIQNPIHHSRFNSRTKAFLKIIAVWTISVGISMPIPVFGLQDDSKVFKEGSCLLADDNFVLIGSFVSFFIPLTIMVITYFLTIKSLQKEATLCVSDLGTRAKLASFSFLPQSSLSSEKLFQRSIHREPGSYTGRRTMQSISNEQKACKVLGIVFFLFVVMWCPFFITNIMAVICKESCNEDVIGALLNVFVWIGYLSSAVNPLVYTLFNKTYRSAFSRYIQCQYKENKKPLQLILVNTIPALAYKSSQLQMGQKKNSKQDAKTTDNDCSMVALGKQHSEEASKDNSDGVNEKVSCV

[12] = molecular target: D(1A) dopamine receptor (Homo sapiens) (UniProt P21728); experiment: Inhibition of human dopamine D1 receptor at 1 uM relative to control
Chain of D(1A) dopamine receptor (Homo sapiens) (P21728 whole entry): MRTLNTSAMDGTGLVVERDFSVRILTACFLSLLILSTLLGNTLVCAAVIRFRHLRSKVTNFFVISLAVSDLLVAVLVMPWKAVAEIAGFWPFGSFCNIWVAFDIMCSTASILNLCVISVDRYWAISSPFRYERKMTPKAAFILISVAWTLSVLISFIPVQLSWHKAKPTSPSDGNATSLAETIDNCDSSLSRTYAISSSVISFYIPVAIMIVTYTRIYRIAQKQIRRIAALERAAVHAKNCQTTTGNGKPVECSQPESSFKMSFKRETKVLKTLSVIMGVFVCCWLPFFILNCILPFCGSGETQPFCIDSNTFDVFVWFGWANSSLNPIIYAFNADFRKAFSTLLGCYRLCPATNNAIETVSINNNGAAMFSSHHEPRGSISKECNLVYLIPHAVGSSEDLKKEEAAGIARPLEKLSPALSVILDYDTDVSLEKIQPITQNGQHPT

[13] = molecular target: C-X-C chemokine receptor type 2 (Homo sapiens) (UniProt P25025); experiment: Inhibition of human CXCR2 receptor at 1 uM relative to control
Rattus norvegicus [14] = experiment: Free maximum concentration of drug in rat at 20 mg/kg, po; type: ADME, organism-based; parameters: dose 20 mg/kg, route oral; conditions: in vivo
[15] = Plasma clearance in rat at 1 mg/kg, iv; type: ADME, organism-based; parameters: dose 1 mg/kg, route intravenous
[16] = molecular target: Histamine H1 receptor (Homo sapiens) (UniProt P35367); experiment: Inhibition of human histamine H1 receptor at 1 uM relative to control
[17] = molecular target: 5-hydroxytryptamine receptor 3A (Homo sapiens) (UniProt P46098); experiment: Inhibition of human 5-HT3 receptor at 1 uM relative to control
Chain of 5-hydroxytryptamine receptor 3A (Homo sapiens) (P46098 whole entry): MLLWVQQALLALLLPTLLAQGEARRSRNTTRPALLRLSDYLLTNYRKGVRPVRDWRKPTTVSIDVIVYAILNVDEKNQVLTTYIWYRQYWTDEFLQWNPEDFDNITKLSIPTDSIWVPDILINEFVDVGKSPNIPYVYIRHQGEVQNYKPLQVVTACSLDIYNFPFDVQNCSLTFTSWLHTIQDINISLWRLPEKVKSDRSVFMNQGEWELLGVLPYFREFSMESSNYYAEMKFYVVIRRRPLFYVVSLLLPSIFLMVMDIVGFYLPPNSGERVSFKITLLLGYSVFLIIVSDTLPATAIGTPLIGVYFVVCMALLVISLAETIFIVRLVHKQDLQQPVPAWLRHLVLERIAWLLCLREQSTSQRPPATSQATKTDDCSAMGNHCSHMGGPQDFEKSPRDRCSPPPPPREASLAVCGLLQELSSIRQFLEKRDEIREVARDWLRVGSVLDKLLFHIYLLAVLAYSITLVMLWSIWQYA

[18] = molecular target: Neuropeptide Y receptor type 1 (Homo sapiens) (UniProt P25929); experiment: Inhibition of human Y1 receptor at 1 uM relative to control
[19] = molecular target: Endothelin-1 receptor (Homo sapiens) (UniProt P25101); experiment: Inhibition of human ETA receptor at 1 uM relative to control
Homo sapiens [20] = species on record: Homo sapiens; experiment: Inhibition of human SKCa channel at 1 uM relative to control
[21] = molecular target: Melanocortin receptor 4 (Homo sapiens) (UniProt P32245); experiment: Inhibition of human MC4 receptor at 1 uM relative to control
Chain of Melanocortin receptor 4 (Homo sapiens) (P32245 whole entry): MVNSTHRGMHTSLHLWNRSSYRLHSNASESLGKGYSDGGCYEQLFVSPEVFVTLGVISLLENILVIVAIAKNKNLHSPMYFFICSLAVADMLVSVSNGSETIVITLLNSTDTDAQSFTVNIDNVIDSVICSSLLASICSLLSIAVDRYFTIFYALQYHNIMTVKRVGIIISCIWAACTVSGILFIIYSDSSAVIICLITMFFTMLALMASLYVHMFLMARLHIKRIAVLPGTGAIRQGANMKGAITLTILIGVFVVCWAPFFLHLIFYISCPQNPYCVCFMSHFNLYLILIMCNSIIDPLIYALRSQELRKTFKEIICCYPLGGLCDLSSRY

[22] = molecular target: Adrenergic receptor alpha-1 (Homo sapiens) (UniProt P35348+P25100+P35368); experiment: Inhibition of human alpha1 receptor at 1 uM relative to control
[23] = Volume of distribution at steady state in rat at 2 mg/kg, iv; type: ADME, organism-based; parameters: dose 2 mg/kg, route intravenous; conditions: in vivo, read-out: Vdss
[24] = molecular target: Neurotensin receptor type 1 (Homo sapiens) (UniProt P30989); experiment: Inhibition of human NTS1 receptor at 1 uM relative to control
Homo sapiens [25] = species on record: Homo sapiens; experiment: Inhibition of human sigma receptor at 1 uM relative to control
[26] = molecular target: 5-hydroxytryptamine receptor 5A (Homo sapiens) (UniProt P47898); experiment: Inhibition of human 5-HT5A receptor at 1 uM relative to control
[27] = molecular target: Adrenergic receptor alpha-2 (Homo sapiens) (UniProt P08913+P18825+P18089); experiment: Inhibition of human alpha2 receptor at 1 uM relative to control
[28] = molecular target: Galanin receptor type 2 (Homo sapiens) (UniProt O43603); experiment: Inhibition of human GAL2 receptor at 1 uM relative to control
Chain of Galanin receptor type 2 (Homo sapiens) (O43603 whole entry): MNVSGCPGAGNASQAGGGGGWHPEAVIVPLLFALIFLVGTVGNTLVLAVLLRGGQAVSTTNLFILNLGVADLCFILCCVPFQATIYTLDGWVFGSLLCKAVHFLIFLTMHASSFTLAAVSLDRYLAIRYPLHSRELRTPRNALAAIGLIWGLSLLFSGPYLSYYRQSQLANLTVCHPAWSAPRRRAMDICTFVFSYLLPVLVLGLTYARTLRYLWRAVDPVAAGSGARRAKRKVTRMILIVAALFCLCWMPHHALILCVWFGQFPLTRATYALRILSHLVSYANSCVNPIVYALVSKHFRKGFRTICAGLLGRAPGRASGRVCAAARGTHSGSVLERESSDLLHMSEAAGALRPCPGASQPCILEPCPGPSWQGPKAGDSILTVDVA

[29] = molecular target: Muscarinic acetylcholine receptor M3 (Homo sapiens) (UniProt P20309); experiment: Inhibition of human M3 receptor at 1 uM relative to control
[30] = molecular target: Voltage-dependent L-type calcium channel subunit alpha-1C (Homo sapiens, UniProt Q13936); experiment: Inhibition of CaV1.2 (unknown origin)
Chain of Voltage-dependent L-type calcium channel subunit alpha-1C (Q13936 whole entry): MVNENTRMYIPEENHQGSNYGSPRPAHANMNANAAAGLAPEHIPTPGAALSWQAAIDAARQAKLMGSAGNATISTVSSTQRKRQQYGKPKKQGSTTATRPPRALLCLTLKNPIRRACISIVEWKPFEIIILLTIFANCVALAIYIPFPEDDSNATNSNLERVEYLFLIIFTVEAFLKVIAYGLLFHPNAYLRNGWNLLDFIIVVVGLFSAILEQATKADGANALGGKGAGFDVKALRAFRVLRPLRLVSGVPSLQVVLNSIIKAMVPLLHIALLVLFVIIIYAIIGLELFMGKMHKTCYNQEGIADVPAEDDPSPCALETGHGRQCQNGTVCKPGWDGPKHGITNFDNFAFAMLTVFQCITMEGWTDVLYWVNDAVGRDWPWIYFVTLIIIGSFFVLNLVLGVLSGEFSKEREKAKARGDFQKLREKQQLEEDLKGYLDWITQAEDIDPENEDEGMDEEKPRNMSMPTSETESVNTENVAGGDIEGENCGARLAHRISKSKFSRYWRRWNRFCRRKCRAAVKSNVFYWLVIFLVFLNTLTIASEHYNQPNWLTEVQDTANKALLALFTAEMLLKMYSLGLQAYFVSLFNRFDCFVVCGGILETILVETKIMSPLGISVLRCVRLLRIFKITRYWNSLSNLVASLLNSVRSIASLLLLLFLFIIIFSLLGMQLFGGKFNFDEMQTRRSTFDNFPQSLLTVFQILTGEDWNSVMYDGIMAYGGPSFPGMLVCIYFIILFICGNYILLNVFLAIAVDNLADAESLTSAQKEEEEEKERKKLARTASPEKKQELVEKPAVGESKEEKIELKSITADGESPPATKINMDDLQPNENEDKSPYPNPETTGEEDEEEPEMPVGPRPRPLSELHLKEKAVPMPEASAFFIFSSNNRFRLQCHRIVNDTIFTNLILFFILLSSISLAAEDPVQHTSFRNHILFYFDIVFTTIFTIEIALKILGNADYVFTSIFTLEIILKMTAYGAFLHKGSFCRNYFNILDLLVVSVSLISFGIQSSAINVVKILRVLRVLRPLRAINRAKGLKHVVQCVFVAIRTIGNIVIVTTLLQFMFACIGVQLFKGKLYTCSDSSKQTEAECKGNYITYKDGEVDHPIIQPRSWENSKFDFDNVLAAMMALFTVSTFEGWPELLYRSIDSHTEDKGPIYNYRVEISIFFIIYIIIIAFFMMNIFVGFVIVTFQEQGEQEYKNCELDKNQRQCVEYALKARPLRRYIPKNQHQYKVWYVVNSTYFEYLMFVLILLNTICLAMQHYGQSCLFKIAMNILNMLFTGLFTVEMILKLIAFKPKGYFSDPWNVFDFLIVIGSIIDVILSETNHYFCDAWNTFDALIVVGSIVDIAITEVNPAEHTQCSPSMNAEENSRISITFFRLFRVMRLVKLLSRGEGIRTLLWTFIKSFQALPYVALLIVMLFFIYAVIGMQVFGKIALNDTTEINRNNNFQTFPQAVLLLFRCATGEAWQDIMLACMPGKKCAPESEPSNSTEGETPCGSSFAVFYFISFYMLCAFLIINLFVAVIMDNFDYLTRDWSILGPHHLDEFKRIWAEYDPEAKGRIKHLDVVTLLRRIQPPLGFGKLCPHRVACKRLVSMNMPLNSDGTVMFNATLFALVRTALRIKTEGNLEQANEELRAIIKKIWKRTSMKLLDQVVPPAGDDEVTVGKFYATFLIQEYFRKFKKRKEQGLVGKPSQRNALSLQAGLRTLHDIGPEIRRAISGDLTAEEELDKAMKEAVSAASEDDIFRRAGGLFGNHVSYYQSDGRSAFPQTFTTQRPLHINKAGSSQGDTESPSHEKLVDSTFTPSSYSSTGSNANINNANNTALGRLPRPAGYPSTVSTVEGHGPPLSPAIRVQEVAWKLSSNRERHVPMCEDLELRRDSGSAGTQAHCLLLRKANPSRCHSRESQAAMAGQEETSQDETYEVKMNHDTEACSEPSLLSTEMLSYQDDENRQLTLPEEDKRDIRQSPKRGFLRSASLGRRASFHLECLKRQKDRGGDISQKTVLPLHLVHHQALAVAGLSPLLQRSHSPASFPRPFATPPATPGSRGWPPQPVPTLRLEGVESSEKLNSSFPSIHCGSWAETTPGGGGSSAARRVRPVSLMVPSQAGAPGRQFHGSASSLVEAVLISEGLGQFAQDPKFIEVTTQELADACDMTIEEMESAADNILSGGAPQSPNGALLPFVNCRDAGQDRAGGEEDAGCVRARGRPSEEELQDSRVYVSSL

[31] = molecular target: Adenosine receptor A1 (Homo sapiens) (UniProt P30542); experiment: Inhibition of human adenosine A1 receptor at 1 uM relative to control
Epoxide hydrolase 1 = Epoxide hydrolase 1 (Homo sapiens, UniProt P07099)
[32] = molecular target: D(2) dopamine receptor (Homo sapiens) (UniProt P14416); experiment: Inhibition of human dopamine D2S receptor at 1 uM relative to control
[33] = Cmax in rat at 20 mg/kg, po; type: ADME, organism-based; parameters: dose 20 mg/kg, route oral; conditions: in vivo
[34] = molecular target: Sodium channel protein type 5 subunit alpha (Homo sapiens, UniProt Q14524); experiment: Inhibition of NaV1.5 (unknown origin)
[35] = molecular target: Vasoactive intestinal polypeptide receptor 1 (Homo sapiens) (UniProt P32241); experiment: Inhibition of human VPAC1 receptor at 1 uM relative to control
[36] = molecular target: Sodium-dependent dopamine transporter (Homo sapiens) (UniProt Q01959); experiment: Inhibition of human dopamine transporter at 1 uM relative to control
Homo sapiens [37] = species on record: Homo sapiens; experiment: Inhibition of human BZD receptor at 1 uM relative to control
Cytochrome P450 2C8 = Cytochrome P450 2C8 (Homo sapiens, UniProt P10632); experiment: Inhibition of CYP2C8 (unknown origin); type: ADME
Homo sapiens [38] = species on record: Homo sapiens; experiment: Inhibition of human GABA receptor at 1 uM relative to control
[39] = molecular target: Neuromedin-K receptor (Homo sapiens) (UniProt P29371); experiment: Inhibition of human NK3 receptor at 1 uM relative to control
[40] = molecular target: 5-hydroxytryptamine receptor 1B (Homo sapiens) (UniProt P28222); experiment: Inhibition of human 5-HT1B receptor at 1 uM relative to control
[41] = molecular target: Mu-type opioid receptor (Homo sapiens) (UniProt P35372); experiment: Inhibition of human mu opioid receptor at 1 uM relative to control
Rattus norvegicus [42] = experiment: Free maximum concentration of drug in rat at 0.2 mg/kg, po; type: ADME, organism-based; parameters: dose 0.2 mg/kg, route oral; conditions: in vivo
Rattus norvegicus [43] = experiment: Dose normalized AUC in rat at 2 mg/kg, iv; type: ADME, organism-based; parameters: dose 2 mg/kg, route intravenous; conditions: in vivo
[44] = molecular target: Neuropeptide Y receptor type 2 (Homo sapiens) (UniProt P49146); experiment: Inhibition of human Y2 receptor at 1 uM relative to control
Homo sapiens [45] = species on record: Homo sapiens; experiment: Inhibition of human P2X receptor at 1 uM relative to control
[46] = molecular target: Cholecystokinin receptor type A (Homo sapiens) (UniProt P32238); experiment: Inhibition of human CCK1 receptor at 1 uM relative to control
[47] = molecular target: Beta-1 adrenergic receptor (Homo sapiens) (UniProt P08588); experiment: Inhibition of human beta1 receptor at 1 uM relative to control
Rattus norvegicus [48] = experiment: In vivo inhibition of soluble epoxide hydrolase in rat assessed as increase in leukotoxin/leukotoxin diol ratio in plasma at 0.2 to 20 mg/kg, po measured after 4 hrs relative to vehicle-treated control; type: functional; conditions: dose mg/kg 0.2-20

## CNc1nc(C)nc(N2CCC(C(=O)NCc3ccc(Br)cc3OC(F)(F)F)CC2)n1
[1]
  Cmax: 223 nM
[2]
  inhibition: < 50%
[3]
  IC50: 0.002 µM
[4]
  inhibition: < 50%
Homo sapiens [5]
  inhibition: < 50%
[6]
  inhibition: < 50%
[7]
  bioavailability: 100%
[8]
  inhibition: < 50%
[9]
  inhibition: < 50%
[10]
  fraction unbound: 0.015
[11]
  inhibition: < 50%
[12]
  inhibition: < 50%
[13]
  inhibition: < 50%
Rattus norvegicus [14]
  fCmax: 24 nM
[15]
  clearance: 12 mL/min/kg
[16]
  inhibition: < 50%
[17]
  inhibition: < 50%
[18]
  inhibition: < 50%
[19]
  inhibition: < 50%
Homo sapiens [20]
  inhibition: < 50%
[21]
  inhibition: < 50%
[22]
  inhibition: < 50%
[23]
  Vd: 2.1 L/kg
[24]
  inhibition: < 50%
Homo sapiens [25]
  inhibition: < 50%
[26]
  inhibition: < 50%
[27]
  inhibition: < 50%
[28]
  inhibition: < 50%
[29]
  inhibition: < 50%
[30]
  IC50: > 10 µM
[31]
  inhibition: < 50%
Epoxide hydrolase 1
  IC50: > 50 µM
[32]
  inhibition: < 50%
[33]
  Cmax: 1490 nM
[34]
  IC50: > 10 µM
[35]
  inhibition: < 50%
[36]
  inhibition: < 50%
Homo sapiens [37]
  inhibition: < 50%
Cytochrome P450 2C8
  IC50: > 30 µM
Homo sapiens [38]
  inhibition: < 50%
[39]
  inhibition: < 50%
[40]
  inhibition: < 50%
[41]
  inhibition: < 50%
Rattus norvegicus [42]
  fCmax: 0.25 nM
Rattus norvegicus [43]
  AUC/dose: 1.3 kg·h/L
[44]
  inhibition: < 50%
Homo sapiens [45]
  inhibition: < 50%
[46]
  inhibition: < 50%
[47]
  inhibition: < 50%
Rattus norvegicus [48]
  inhibition (INH): 50%
